Measured values taken from patent publication US12673951B2, “Substituted pyrazoloquinazolinone compounds and application thereof” (IMPACT THERAPEUTICS (SHANGHAI), INC, priority 2019, dated 2026).
Read-outs that look alike come from different tables or passages of the source.

How the values were obtained:
[1] = tested on: human breast cancer cell MDA-MB-468; experiment: MTT assay, growth of MDA-MB-468 cells; format: cell-based; settings: read-out: IC50, growth of MDA-MB-468
Experimental: The cells were seeded into 96-well cell culture plate with appropriate cell density and incubated overnight in a 37° C. 5% CO2 incubator. […] 5 μL of each concentration was added to 120 μL of medium (25 times diluted) and mixed by shaking. The overnight cells were taken and the culture medium was removed, 195 μL of fresh medium was added to each well, and 5 μL of diluted medium containing the corresponding concentration of the tested sample was added, respectively, and the culture plate was then placed in the 5% CO2 cell culture incubator at 37° C. for 7 days (On the fourth day, the medium containing drugs was removed and fresh medium containing drugs was added for continuous cultivation.). After removing the original solution, 100 μL of fresh serum-free DMEM medium containing MTT (0.5 mg/mL) was added to each well, the culture was continued. […] GraphPad Prism 6.0 was used to analyze the data. The inhibitory activity of compounds on cell proliferation was plotted based on cell viability and compound concentration.

[2] = tested on: human colon cancer cell SW620; experiment: MTT assay, growth of SW620 cells, compounds combined with CPT-11; format: cell-based; settings: read-out: IC50, growth of SW620 combined with CPT-11
Experimental: The cells were seeded into 96-well cell culture plate with appropriate cell density and incubated overnight in a 37° C. 5% CO2 incubator. […] 5 μL of each concentration was added to 120 μL of medium (25 times diluted) and mixed by shaking. […] After removing the original solution, 100 μL of fresh serum-free DMEM medium containing MTT (0.5 mg/mL) was added to each well, the culture was continued. […] GraphPad Prism 6.0 was used to analyze the data. The inhibitory activity of compounds on cell proliferation was plotted based on cell viability and compound concentration.

ATM enzyme = biological target: T1, ATM enzyme (Homo sapiens, UniProt Q13315); experiment: ATM kinase assay (HTRF); format: biochemical; settings: for inhibition at 1 µM / inhibition at 0.1 µM / inhibition at 10 µM / inhibition at 100 µM: 0.5 h, read-out: Inh (%) ATM kinase inhibition rate; for inhibition at 0.1 µM: C 0.1 μm
T1 construct: purchased Eurofins 14-933
Experimental: The mixture was centrifuged at 1000 rpm for 1 minute, and reacted at room temperature away from light for 30 minutes. Then 5 μL of EDTA stop solution (250 mM) was added to stop the reaction. After 5 μL of detection mixture (Anti-phospho-p53 (ser15)-K (Cisbio, #61P08KAE, 0.084 ng/μL) and Anti-GST-d2 (Cisbio, #61GSTDLA, 5.00 ng/μL)) was finally added to each well, then incubate the plate overnight at room temperature.
Relative fluorescence ratio was calculated: Ratio665 nm/615 nm-Ratiobackground, and inhibition rate %=(1−(relative fluorescence ratio of test compound well−relative fluorescence ratio of positive control well)/(relative fluorescence ratio of negative control well−relative fluorescence ratio of positive control well))×100 was calculated. Data were analyzed using GraphPad Prism6.0, and fitted using the curve equation: Y=Bottom+(Top−Bottom)/(1+10^((Log IC50−X)×HillSlope)) and IC50 values were calculated.

[3] = Homo sapiens, 168 h, MDA-MB-468 cells, 7 days, MTT
[4] = Homo sapiens, SW-620, 120 h, SW620 cells, medium containing 205 nM CPT-11, 5 days, MTT
[5] = Homo sapiens, MDA-MB-468, 168 h

T1 sequence (Q13315 whole entry): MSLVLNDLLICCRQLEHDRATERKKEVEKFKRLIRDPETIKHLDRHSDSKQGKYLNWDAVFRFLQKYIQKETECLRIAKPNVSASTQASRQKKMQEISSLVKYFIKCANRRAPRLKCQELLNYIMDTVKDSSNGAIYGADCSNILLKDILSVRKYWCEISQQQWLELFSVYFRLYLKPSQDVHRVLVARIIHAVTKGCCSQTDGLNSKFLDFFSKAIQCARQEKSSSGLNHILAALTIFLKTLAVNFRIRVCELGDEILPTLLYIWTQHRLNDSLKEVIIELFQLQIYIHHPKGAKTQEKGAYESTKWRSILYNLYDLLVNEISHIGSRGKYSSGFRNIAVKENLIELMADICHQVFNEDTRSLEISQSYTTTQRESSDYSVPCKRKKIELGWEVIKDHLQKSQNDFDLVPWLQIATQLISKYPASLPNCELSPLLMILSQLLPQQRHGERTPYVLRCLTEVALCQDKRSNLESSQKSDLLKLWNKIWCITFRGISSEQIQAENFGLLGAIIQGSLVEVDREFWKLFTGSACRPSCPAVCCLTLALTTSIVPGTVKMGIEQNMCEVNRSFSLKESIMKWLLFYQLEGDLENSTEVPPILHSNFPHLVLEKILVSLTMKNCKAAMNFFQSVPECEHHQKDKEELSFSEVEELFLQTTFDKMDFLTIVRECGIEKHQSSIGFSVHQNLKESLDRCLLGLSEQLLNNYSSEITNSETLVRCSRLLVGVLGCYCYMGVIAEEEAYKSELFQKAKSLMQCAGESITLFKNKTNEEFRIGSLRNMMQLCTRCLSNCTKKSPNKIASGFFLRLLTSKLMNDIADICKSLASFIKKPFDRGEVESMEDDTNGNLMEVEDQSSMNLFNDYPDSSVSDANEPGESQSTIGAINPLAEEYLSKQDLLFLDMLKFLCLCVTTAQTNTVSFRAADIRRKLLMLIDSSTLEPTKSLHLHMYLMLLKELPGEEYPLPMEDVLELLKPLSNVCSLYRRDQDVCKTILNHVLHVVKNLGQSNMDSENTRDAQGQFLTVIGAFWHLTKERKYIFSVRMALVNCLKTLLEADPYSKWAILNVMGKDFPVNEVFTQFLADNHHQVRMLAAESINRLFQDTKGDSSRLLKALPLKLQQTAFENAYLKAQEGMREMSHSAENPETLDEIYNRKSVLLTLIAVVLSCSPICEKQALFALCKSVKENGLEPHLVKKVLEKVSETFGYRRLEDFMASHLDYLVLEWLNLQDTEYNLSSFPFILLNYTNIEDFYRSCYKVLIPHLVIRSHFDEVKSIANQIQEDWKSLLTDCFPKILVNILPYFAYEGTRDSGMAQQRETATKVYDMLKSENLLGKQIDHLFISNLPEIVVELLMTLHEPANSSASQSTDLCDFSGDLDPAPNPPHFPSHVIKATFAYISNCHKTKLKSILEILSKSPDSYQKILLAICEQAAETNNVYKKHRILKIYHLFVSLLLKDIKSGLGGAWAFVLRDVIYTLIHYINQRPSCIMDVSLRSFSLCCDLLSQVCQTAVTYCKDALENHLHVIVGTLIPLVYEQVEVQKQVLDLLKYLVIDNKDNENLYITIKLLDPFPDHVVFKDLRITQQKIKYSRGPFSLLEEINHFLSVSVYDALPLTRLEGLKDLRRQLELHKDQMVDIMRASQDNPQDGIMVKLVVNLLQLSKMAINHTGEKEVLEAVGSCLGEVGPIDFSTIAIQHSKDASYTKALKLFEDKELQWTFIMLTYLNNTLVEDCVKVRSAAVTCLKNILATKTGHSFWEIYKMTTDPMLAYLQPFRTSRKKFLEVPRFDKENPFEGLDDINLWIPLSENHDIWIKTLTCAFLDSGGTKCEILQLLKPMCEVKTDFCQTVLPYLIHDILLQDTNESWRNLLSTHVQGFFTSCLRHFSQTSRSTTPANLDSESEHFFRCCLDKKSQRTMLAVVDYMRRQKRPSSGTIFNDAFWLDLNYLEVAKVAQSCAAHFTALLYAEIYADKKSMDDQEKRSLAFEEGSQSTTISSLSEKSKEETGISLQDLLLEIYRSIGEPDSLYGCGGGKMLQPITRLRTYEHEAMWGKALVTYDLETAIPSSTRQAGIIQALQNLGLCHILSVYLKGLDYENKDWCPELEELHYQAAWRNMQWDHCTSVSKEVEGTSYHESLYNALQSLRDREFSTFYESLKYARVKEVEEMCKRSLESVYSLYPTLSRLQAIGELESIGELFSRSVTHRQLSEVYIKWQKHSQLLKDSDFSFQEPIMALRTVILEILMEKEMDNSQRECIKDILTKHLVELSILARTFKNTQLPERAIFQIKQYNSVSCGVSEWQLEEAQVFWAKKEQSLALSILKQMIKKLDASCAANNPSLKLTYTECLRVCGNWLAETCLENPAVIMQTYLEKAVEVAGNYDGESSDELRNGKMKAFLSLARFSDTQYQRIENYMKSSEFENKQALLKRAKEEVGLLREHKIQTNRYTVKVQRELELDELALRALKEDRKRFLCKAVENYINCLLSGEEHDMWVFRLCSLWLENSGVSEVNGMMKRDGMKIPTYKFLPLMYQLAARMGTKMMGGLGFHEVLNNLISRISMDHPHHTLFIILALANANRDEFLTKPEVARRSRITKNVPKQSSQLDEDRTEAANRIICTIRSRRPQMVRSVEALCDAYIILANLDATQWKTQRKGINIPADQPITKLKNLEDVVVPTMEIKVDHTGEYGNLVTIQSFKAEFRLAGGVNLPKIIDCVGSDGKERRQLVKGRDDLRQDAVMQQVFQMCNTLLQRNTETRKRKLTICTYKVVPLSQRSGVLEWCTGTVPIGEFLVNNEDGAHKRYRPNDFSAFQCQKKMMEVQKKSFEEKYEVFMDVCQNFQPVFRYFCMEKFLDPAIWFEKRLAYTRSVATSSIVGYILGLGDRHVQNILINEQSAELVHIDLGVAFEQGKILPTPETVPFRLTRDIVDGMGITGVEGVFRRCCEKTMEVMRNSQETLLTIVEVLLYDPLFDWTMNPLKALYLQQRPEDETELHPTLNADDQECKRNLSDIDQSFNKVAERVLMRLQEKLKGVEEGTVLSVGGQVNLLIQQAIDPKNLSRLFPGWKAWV

IC50 [1, 3] [nM]	IC50 [2, 4] [nM]	inhibition at 1 µM (ATM enzyme; C 1 μm) [%]	inhibition at 0.1 µM (ATM enzyme) [%]	inhibition at 10 µM (ATM enzyme; C 10 μm) [%]	IC50 [1, 5] [nM]	IC50 ([2]; Homo sapiens, SW-620, 120 h) [nM]	SMILES	other results
123	142	66.5	–	–	–	–	CCn1c(=O)c(C2CCOCC2)c2c3cc(-c4ccc(OCCCN(C)C)nc4)ccc3ncn21 [Example 26, 9-(6-(3-(dimethylamino)propoxy)pyridin-3-yl)-3-ethyl-1-(tetrahydro-2H-pyran-4-yl)pyrazolo[1,5-c]quinazolin-2(3H)-one]	–
6	6.22	93	66	98	–	–	Cn1c(=O)c(C2CCOCC2)c2c3cc(-c4ccc(OCCCN5CCCCC5)nc4)ccc3ncn21 [Example 3, 9-(6-(3-(piperidin-1-yl)propoxy)pyridin-3-yl)-3-methyl-1-(tetrahydro-2H-pyran-4-yl)pyrazolo[1,5-c]quinazolin-2(3H)-one]	–
2.27	1.46	95	87	100	–	–	CNC1CCN(c2ccc(-c3ccc4ncn5c(c(C6CCOCC6)c(=O)n5C)c4c3)cc2C(F)(F)F)CC1 [Example 10, 9-(4-(4-(methylamino)piperidin-1-yl)-3-(trifluoromethyl)phenyl)-3-methyl-1-(tetrahydro-2H-pyran-4-yl)pyrazolo[1,5-c]quinazolin-2(3H)-one]	–
3.79	3.16	91	61	96	–	–	CN(C)C1CCN(c2ccc(-c3ccc4ncn5c(c(C6CCOCC6)c(=O)n5C)c4c3)cc2Cl)CC1 [Example 7, 9-(3-chloro-4-(4-(dimethylamino)piperidin-1-yl)phenyl)-3-methyl-1-(tetrahydro-2H-pyran-4-yl)pyrazolo[1,5-c]quinazolin-2(3H)-one]	–
231	> 1000	0	–	23	–	–	CN(C)CCCOc1ccc(-c2ccc3ncn4[nH]c(=O)c(C5CCOCC5)c4c3c2)cn1 [Example 1, 9-(6-(3-(dimethylamino)propoxy)pyridin-3-yl)-1-(tetrahydro-2H-pyran-4-yl)pyrazolo[1,5-c]quinazolin-2(3H)-one]	inhibition at 100 µM (ATM enzyme; C 100 μm): 69%
9.5	9.8	87	–	96	–	–	CN(C)CCCOc1ccc(-c2ccc3ncn4c(c(C5CCOCC5)c(=O)n4C)c3c2)cn1 [Example 2, 9-(6-(3-(dimethylamino)propoxy)pyridin-3-yl)-3-methyl-1-(tetrahydro-2H-pyran-4-yl)pyrazolo[1,5-c]quinazolin-2(3H)-one]	inhibition at 100 µM (ATM enzyme; C 100 μm): 100%
–	–	–	–	–	22.9	26.1	CC(C)c1c(=O)n(C)n2cnc3ccc(-c4ccc(N5CCC(N(C)C)CC5)c(Cl)c4)cc3c12 [Example 22, 9-(3-chloro-4-(4-(dimethylamino)piperidin-1-yl)phenyl)-1-isopropyl-3-methylpyrazolo[1,5-c]quinazolin-2(3H)-one]	–
3.55	4.82	95	66	100	–	–	CCNC1CCN(c2ccc(-c3ccc4ncn5c(c(C6CCOCC6)c(=O)n5C)c4c3)cc2C(F)(F)F)CC1 [Example 11, 9-(4-(4-(ethylamino)piperidin-1-yl)-3-(trifluoromethyl)phenyl)-3-methyl-1-(tetrahydro-2H-pyran-4-yl)pyrazolo[1,5-c]quinazolin-2(3H)-one]	–
–	–	–	–	–	13.5	13.4	CC(C)c1c(=O)n(C)n2cnc3ccc(-c4ccc(OCCCN(C)C)c(C(F)(F)F)c4)cc3c12 [Example 25, 9-(4-(3-(dimethylamino)propoxy)-3-(trifluoromethyl)phenyl)-1-isopropyl-3-methylpyrazolo[1,5-c]quinazolin-2(3H)-one]	–
–	–	–	–	–	–	–	CN(C)CCCOc1ccc(-c2ccc3ncc4c(c3c2)n(C2CCOCC2)c(=O)n4C)cn1 [AZD0156, reference compound]	IC50 ([1]; MDA-MB-468 cells, 7 days, MTT): 9.87 nM; IC50 ([2]; SW620 cells, medium containing 205 nM CPT-11, 5 days, MTT): 9.77 nM; Inh (%) ATM kinase inhibition rate (ATM enzyme; C 1 μm): 90%; Inh (%) ATM kinase inhibition rate (ATM enzyme; C 10 μm): 95%; Inh (%) ATM kinase inhibition rate (ATM enzyme; C 100 μm): 100%
–	–	–	–	–	2.21	3.48	CC(C)c1c(=O)n(C)n2cnc3ccc(-c4ccc(OCCCN5CCCCC5)nc4)cc3c12 [Example 20, 9-(6-(3-(piperidin-1-yl)propoxy)pyridin-3-yl)-1-isopropyl-3-methyl-pyrazolo[1,5-c]quinazolin-2(3H)-one]	–
–	–	–	–	–	5.55	5.67	CC(C)c1c(=O)n(C)n2cnc3ccc(-c4ccc(OCCCN(C)C)nc4)cc3c12 [Example 19, 9-(6-(3-(dimethylamino)propoxy)pyridin-3-yl)-1-isopropyl-3-methylpyrazolo[1,5-c]quinazolin-2(3H)-one]	–
–	–	–	–	–	6.76	8.49	CC(C)c1c(=O)n(C)n2cnc3ccc(-c4ccc(N5CCC(N(C)C)CC5)c(C(F)(F)F)c4)cc3c12 [Example 23, 9-(4-(4-(dimethylamino)piperidin-1-yl)-3-(trifluoromethyl)phenyl)-1-isopropyl-3-methylpyrazolo[1,5-c]quinazolin-2(3H)-one]	–
2.71	2.69	94	57	98	–	–	CN(C)C1CCN(c2ccc(-c3ccc4ncn5c(c(C6CCOCC6)c(=O)n5C)c4c3)cc2F)CC1 [Example 6, 9-(4-(4-(dimethylamino)piperidin-1-yl)-3-fluorophenyl)-3-methyl-1-(tetrahydro-2H-pyran-4-yl)pyrazolo[1,5-c]quinazolin-2(3H)-one]	–
2.38	1.52	93	61	100	–	–	CN(C)CCCOc1ccc(-c2ccc3ncn4c(c(C5CCOCC5)c(=O)n4C)c3c2)cc1C(F)(F)F [Example 5, 9-(4-(3-(dimethylamino)propoxy)-3-(trifluoromethyl)phenyl)-3-methyl-1-(tetrahydro-2H-pyran-4-yl)pyrazolo[1,5-c]quinazolin-2(3H)-one]	–
–	–	–	–	–	43.8	47.6	CC(C)c1c(=O)n(C)n2cnc3ccc(-c4ccc(OCCCN(C)C)c(F)c4)cc3c12 [Example 24, 9-(4-(3-(dimethylamino)propoxy)-3-fluorophenyl)-1-isopropyl-3-methylpyrazolo[1,5-c]quinazolin-2(3H)-one]	–
–	–	–	–	–	7.22	10.5	CC(C)c1c(=O)n(C)n2cnc3ccc(-c4ccc(N5CCC(N(C)C)CC5)c(F)c4)cc3c12 [Example 21, 9-(4-(4-(dimethylamino)piperidin-1-yl)-3-fluorophenyl)-1-isopropyl-3-methylpyrazolo[1,5-c]quinazolin-2(3H)-one]	–
2.65	2.1	99	86	100	–	–	CN(C)C1CCN(c2ccc(-c3ccc4ncn5c(c(C6CCOCC6)c(=O)n5C)c4c3)cc2C(F)(F)F)CC1 [Example 8, 9-(4-(4-(dimethylamino)piperidin-1-yl)-3-(trifluoromethyl)phenyl)-3-methyl-1-(tetrahydro-2H-pyran-4-yl)pyrazolo[1,5-c]quinazolin-2(3H)-one]	–
